Measured values: US9770482B2, “Targeting the EGFR-SGLT1 interaction for cancer therapy” (The University of Houston System, priority 2013, dated 2017)
“Also recorded” adds a separate entry of the source. Each block holds one molecule with its values, some of them ahead of it. Peptide text beside a SMILES is read from it. * marks the point of attachment. Cbz = O=C(OCc1ccccc1)*

What was measured:
EGFR-SGLT1 interaction = target: T1, EGFR-SGLT1 interaction (Homo sapiens, UniProt P00533); assay: Immunoprecipitation coupled Western blot of EGFR-HA and SGLT1-Flag interaction in co-transfected HEK293 cells; format: cell-based; conditions: WT-EGFR and SGLT1 co-transfected HEK293 cells; EGF 10 ng/ml or EGF plus AEE788 5 μM, 30-60 min; FIG. 3A
T1 construct: The full-length human EGFR was amplified with a forward primer EGFR-F; expressed in transfected cells; host or cells: HEK293

[1] = target: T2, endogenous EGFR-SGLT1 interaction (Homo sapiens, UniProt P00533); assay: Immunoprecipitation coupled Western blot of endogenous EGFR and SGLT1 interaction in PC3 cells; format: cell-based; conditions: PC3 cells treated with EGF or AEE788; FIG. 3B
T2 construct: endogenous in cells; host or cells: PC3

SGLT1 [2] = assay: Western blot of SGLT1 level in PC3 cells; format: cell-based; conditions: FIG. 5B
Text: (§1) In another embodiment, a peptide can destabilize EGFR and SGLT1 proteins of cancer cells. FIG. 5A, by way of example only, illustrates an embodiment of a peptide, called ESD-01 (SEQ ID NO: 001), which can destabilize EGFR and SGLT1 proteins of cancer cells. In one embodiment, the ESD-01 peptide can be selected from the SGLT1 interacting domain of EGFR. In another embodiment, ESD-01 comprises amino acids 1049-1062 of a human EGFR protein (GenBank: AAH94761.1). In still another embodiment, the effects of ESD-01 on the stability of EGFR and SGLT1 in cultured cells (e.g, PC3, MDA-MB-231, and HCT116 cells) can be determined by Western blot analysis. […] In still another embodiment, the effects of ESD-01 on the survivability of cultured cancer cells (e.g, PC3, MDA-MB-231, and HCT116 cells) can be determined by trypan blue uptake assay.
(§2) For Western blot (WB) analysis, cells were lysed with RIPA buffer (150 mM NaCl, 50 mM Tris-HCl, pH 7.4, 0.1% SDS, 1% TritonX-100, 1 mM EDTA, 1 mM PMSF, 20 μg/ml aprotinin, 20 μg/ml leupeptin, 20 μg/ml pepstatine, 1% sodium deoxycholate, 1 mM NaF, 1 mM Na3VO4, in H2O). Proteins separated by 8% SDS-PAGE were transferred to PVDF membrane followed by blocking with 5% nonfat dry milk and then incubation with primary antibodies at optimized concentrations for overnight at 4° C. […]

SGLT1 [3] = assay: Western blot of SGLT1 level in SGLT1 and ΔAutoPhos-EGFR co-transfected HEK293 cells; format: cell-based, human; conditions: FIGS. 2C-2D
Text: In an embodiment, to determine whether proteasome is involved in loss of interaction with EGFR induced down-regulation of SGLT1, SGLT1 and ΔAutoPhos-EGFR co-transfected HEK293 cells can be treated with a proteasome inhibitor, such as but not limited to […]. For example, FIG. 2C illustrates a Western blot analysis of the effect of a proteasome inhibitor MG132 on the down-regulation of SGLT1 by ΔAutophos-EGFR. Actin may be used as a loading control. FIG. 2D, by way of example only, illustrates a densitometric quantification of bands in the Western blot of FIG. 2C. Asterisk marks indicate statistical significance between the linked representative groups from triplicate experiments.
HEK293 cells were transfected with plasmids expressing flagged SGLT1 alone or with indicated HA tagged EGFR constructs. After 24 hours of transfection, cells were washed in 1× phosphate buffered solution and lysed with RIPA buffer (50 mM Tris-HCl, pH 8.0, with 150 mM sodium chloride, 1.0% Igepal CA-630 (NP-40), 0.5% sodium deoxycholate, and 0.1% sodium dodecyl sulfate), supplemented with a protease inhibitors cocktail for 6 hours on a shaker at 4° C. The cell lysates were then centrifuged for 2 minutes at 12000× rpm. Supernatant were then incubated with sepharose protein A/G beads conjugated with anti-flag or anti-SGLT1 antibody for overnight at 4° C. […]

EGFR = assay: Western blot of EGFR level in PC3 cells; format: cell-based; conditions: FIG. 5B
Text: as §1, §2

PC3 cells = assay: MTT cell growth assay, PC3 cells; format: cell-based; conditions: phlorizin 50 μM with/without Gefitinib 10 μM or Erlotinib 10 μM, 48 hs, FIG. 4C
Protocol: (§3) It is well known that an increase in glucose levels can activate EGFR, that SGLT1 is over-expressed in prostate cancer tissues, and that prostate cancer is resistant to EGFR inhibitors. […] In an embodiment, SGLT1 and EGFR can synergistically promote prostate cancer growth. […] In one embodiment, the growth inhibitory effects of the treatments may be determined. […]
(§4) Cell growth was determined by 3-(4,5-dimethylthiazole-2-yl)-2,5-diphenyltetrazolium Bromide (MTT) assay in 96-well plates according to the protocol provided by the manufacture. […] Absorbance was measured by a MultiSkan plate reader (Thermo Fisher Scientific, NC) at 570 nm. […] Cell viability was determined by trypan blue uptake assay. The percentage of live cells were counted in areas (n=3 for each sample) randomly selected under 10× magnificence of triplicates. […]

LNCaP cells = assay: MTT cell growth assay, LNCaP cells; format: cell-based; conditions: phlorizin 50 μM with/without Gefitinib 10 μM or Erlotinib 10 μM, 48 hs, FIG. 4D
Protocol: as §3, §4

[4] = tested on: non-cancerous HEK293 cells; assay: Trypan blue uptake assay, HEK293 cells; format: cell-based; conditions: FIG. 6
Text: as §1
(§5) Cell growth was determined by 3-(4,5-dimethylthiazole-2-yl)-2,5-diphenyltetrazolium Bromide (MTT) assay in 96-well plates according to the protocol provided by the manufacture. Briefly, 5000 cells suspended in 100 μL medium were seeded in each well of a 96-well plate. […] Absorbance was measured by a MultiSkan plate reader (Thermo Fisher Scientific, NC) at 570 nm. […] Cell viability was determined by trypan blue uptake assay. The percentage of live cells were counted in areas (n=3 for each sample) randomly selected under 10× magnificence of triplicates.

[5] = tested on: colon cancer HCT116 cells; assay: Trypan blue uptake assay, HCT116 cells; format: cell-based; conditions: 100 μM for 24 hours, FIG. 6
Text: as §1, §5

[6] = tested on: prostate cancer PC3 cells; assay: Trypan blue uptake assay, PC3 cells; format: cell-based; conditions: 100 μM for 24 hours, FIG. 6
Text: as §1, §5

[7] = tested on: breast cancer MDA-MB-231 cells; assay: Trypan blue uptake assay, MDA-MB-231 cells; format: cell-based; conditions: 100 μM for 24 hours, FIG. 6
Text: as §1, §5

[8] = tested on: prostate cancer Du145 cells; assay: Trypan blue uptake assay, Du145 cells; format: cell-based; conditions: 100 μM for 24 hours, FIG. 6
Text: as §1, §5

cancer cells = assay: Killing of cancer cells in vitro, L- versus D-amino acid peptide; format: cell-based
[9] = target: T3, wild type EGFR, HA tagged (human, full length, C-terminal HA tag) (human, UniProt P00533 25-1210); assay: co-IP of SGLT1-Flag, Western blot for EGFR-HA, HEK293 cells treated with EGF or EGF plus AEE788
T3 construct: whole, on cells; Expressed by transient transfection in HEK293 cells; tested in RIPA lysates by co-immunoprecipitation; also called WT; WT-EGFR; not shown: C-terminal HA tag

[10] = target: T4, endogenous EGFR of PC3 cells (UniProt P00533 25-1210, limits assumed); assay: co-IP of endogenous SGLT1 (anti-SGLT1), Western blot for EGFR and pEGFR, PC3 cells treated with EGF or AEE788
T4 construct: whole, on cells; Co-precipitated from PC3 lysates with endogenous SGLT1

Molecule: CCN1CCN(Cc2ccc(-c3cc4c(N[C@H](C)c5ccccc5)ncnc4[nH]3)cc2)CC1 [AEE788]
- effect on EGFR-SGLT1 interaction (EGFR co-immunoprecipitated with SGLT1) (EGFR-SGLT1 interaction): neither EGF nor AEE788 significantly affects the EGFR-SGLT1 interaction
- effect on endogenous EGFR-SGLT1 interaction [1]: neither EGF nor AEE788 affect the EGFR-SGLT1 interaction

Molecule: CC(C)C[C@@H](C=O)NC(=O)[C@H](CC(C)C)NC(=O)[C@H](CC(C)C)NC(=O)OCc1ccccc1 [MG132] (Cbz-Leu-Leu-Leu-aldehyde)
- inhibition of ESD-01 induced SGLT1 down-regulation (SGLT1 [2]; ESD-01 200 μM for 6 hours): inhibited
- inhibition of down-regulation of SGLT1 (SGLT1 [3]): can inhibit the down-regulation of SGLT1
- inhibition of ESD-01 induced EGFR down-regulation (EGFR; ESD-01 200 μM for 6 hours): inhibited

Molecule: O=C(CCc1ccc(O)cc1)c1c(O)cc(O)cc1O[C@@H]1O[C@H](CO)[C@@H](O)[C@H](O)[C@H]1O [Phlorizin]
- sensitization to growth inhibitory effects of Gefitinib and Erlotinib (PC3 cells): sensitizes; also recorded: significantly sensitize
- sensitization to growth inhibitory effects of Gefitinib and Erlotinib (LNCaP cells): sensitizes; also recorded: significantly sensitize

Molecule: ESD-01: synthesized peptide from the SGLT1 interacting domain of EGFR; comprises amino acids 1049-1062 of a human EGFR protein (GenBank: AAH94761.1) (LVWKQSCSSTSSTH; listed as Homo sapiens)
- survivability [4]: cannot reduce the survivability
- SGLT1 level (SGLT1 [2]; 200 μM for 6 hours): significantly down-regulates
- survivability [5]: significantly reduces the survivability
- survivability [6]: significantly reduces the survivability
- survivability [7]: significantly reduces the survivability
- survivability [8]: significantly reduces the survivability
- EGFR level (EGFR; 200 μM for 6 hours): significantly down-regulates
- killing cancer cells in vitro, peptide made of L-amino acids versus D-amino acids (cancer cells): equally effective

- binding result [9]: binds
B1: flag tagged human SGLT1 (sodium/glucose co-transporter 1) (other, UniProt P13866 1-664, looked up)
chain: MDSSTWSPKTTAVTRPVETHELIRNAADISIIVIYFVVVMAVGLWAMFSTNRGTVGGFFLAGRSMVWWPIGASLFASNIGSGHFVGLAGTGAASGIAIGGFEWNALVLVVVLGWLFVPIYIKAGVVTMPEYLRKRFGGQRIQVYLSLLSLLLYIFTKISADIFSGAIFINLALGLNLYLAIFLLLAITALYTITGGLAAVIYTDTLQTVIMLVGSLILTGFAFHEVGGYDAFMEKYMKAIPTIVSDGNTTFQEKCYTPRADSFHIFRDPLTGDLPWPGFIFGMSILTLWYWCTDQVIVQRCLSAKNMSHVKGGCILCGYLKLMPMFIMVMPGMISRILYTEKIACVVPSECEKYCGTKVGCTNIAYPTLVVELMPNGLRGLMLSVMLASLMSSLTSIFNSASTLFTMDIYAKVRKRASEKELMIAGRLFILVLIGISIAWVPIVQSAQSGQLFDYIQSITSYLGPPIAAVFLLAIFWKRVNEPGAFWGLILGLLIGISRMITEFAYGTGSCMEPSNCPTIICGVHYLYFAIILFAISFITIVVISLLTKPIPDVHLYRLCWSLRNSKEERIDLDAEEENIQEGPKETIEIETQVPEKKKGIFRRAYDLFCGLEQHGAPKMTEEEEKAMKMKMTDTSEKPLWRTVLNVNGIILVTVAVFCHAYFA
notes: whole, on cells; Plasmid described in Blessing et al. 2012; Expressed in HEK293 cells and immunoprecipitated with anti-flag antibody; also called SGLT1-Flag; flagged SGLT1; not shown: Flag tag

- binding result [10]: binds
B2: endogenous SGLT1 of PC3 cells (other, UniProt P13866 1-664, looked up)
chain: B1 chain
notes: whole, on cells; Immunoprecipitated from PC3 lysates with anti-SGLT1 antibody
